*1 amine or outer side, *2 acyl side, *3 side chain or, on linkers, in order; H or OH if unused. Where a SMILES comes first, the peptide text is derived from it. Bridges are numbered along the chain shown (N, C = ends). Roman numbers before positions name the chains, in order. [ ]: non-standard residue; d: D form. The star is where a group is joined. X1 = O=C(O)[C@H]1O[C@@H](Oc2ccc(COC(=O)[*:2])cc2N[*:1])[C@H](O)[C@@H](O)[C@@H]1O; Dolaproine = CO[C@@H]([C@@H]1CCCN1)[C@@H](C)C(=O)O; X3 = O=C(CCCCCN1C(=O)CC([*:1])C1=O)NCCC(=O)[*:2]; Dil = CC[C@H](C)[C@H](NC)[C@@H](CC(=O)O)OC; X2 = C[C@@H](N*)[C@@H](O)c1ccccc1; NMeV = CN[C@H](C(=O)O)C(C)C; AEEA = NCCOCCOCC(=O)O
Legend:
Assay type in all cases: cell-based
[1] = test system: HL-60; assay: Cell killing in HL-60 by CCK-8; conditions: HL-60, 48 h
Experimental: • a) Cell line: HL-60 • b) Procedure • (1) Normally cultured HL-60 cells in the logarithmic growth phase were centrifuged at 800 rpm for 5 min to discard the supernatant. Approximately 3 mL of normal medium was added to resuspend the cell pellet by gently pipetting up and down. The cells were then counted using a cell counter and inoculated onto a 96-well plate. • (2) Sample solutions with different concentration gradients were prepared. Approximately 10 µL of each solution was added to the 96-well plate, with 3 to 6 replicate wells for each concentration, and incubated in a 5% CO2 incubator at 37°C for 48 h. • (3) CCK-8 was equilibrated to room temperature before use, and 10 µL of CCK-8 solution was added to each well. • (4) The plate was incubated in the incubator for 0.5-4 h in the dark, with the incubation time depending on experimental conditions such as cell type and density. • (5) The absorbance was measured at 450 nm using a microplate reader. • c) Data analysis Cell viability = [(As−Ab)/(Ac−Ab)] × 100% [formula] Inhibition% = [(Ac−As)/(Ac−Ab)] × 100% [formula] • As: absorbance of sample well (containing cells + medium + CCK-8 solution + drug solution); • Ac: absorbance of control well (containing cells + medium + CCK-8 solution); • Ab: absorbance of blank well (containing medium + CCK-8 solution); • The results were processed and analyzed using Excel and Graphpad Prism to obtain the IC50. Table 4: Test Results of Cell Killing in HL-60 for 48 h

[2] = test system: NCI-H69; assay: Cell killing in NCI-H69 by CGT (CellTiter-Glo); conditions: NCI-H69, 96 h; Inh% relative to DMSO control, 4-parameter fit
Experimental: Approximately 5 µL of the PDC was added to the corresponding wells of the plate, and compared with DMSO (control, without the PDC of the present application), PTX, MMAE, and Dxd wells. The final concentration of DMSO in each well was 0.2%; • (5) The cells were incubated in a 5% CO2 incubator at 37°C for 96 h; • (6) The cell culture plate was equilibrated to room temperature, and 50 µL of CellTiter-Glo® Reagent was added to each well; • (7) The plate was placed on a shaker for 2 min to ensure complete cell lysis; • (8) After mixing, the plate was placed at room temperature to react for 10 min. The fluorescence value (in RLU) was read when the signal became stable. • c) Data analysis • (1) The inhibition (Inh %) relative to the DMSO control was calculated as follows: Inhibition (Inh%)= 100 -(RLU of compound - RLU of DMSO control)/ (RLU of DMSO control - RLU of blank)*100% • (2) The data were analyzed using Graphpad 5.0 software. A 4-parameter equation was fitted to generate a concentration-response curve to obtain the IC50. Table 3: Test Results of Cell Killing in NCI-H69

[3] = biological target: T1, SSTR2 (Homo sapiens, UniProt P30874); assay: SSTR2 cAMP test; conditions: Max Dose 50000 nM
T1 construct: expressed in transfected cells; host or cells: CHO cells (SSTR2/CHO)
Experimental: • 1) Compound preparation: The test compound was diluted by 4-fold with DMSO to obtain 10 different concentration points. Approximately 100 nL of the diluted compound was then transferred to a cell reaction plate and centrifuged for later use. • 2) Cell preparation:The cultured SSTR2/CHO cells were collected into a sterile centrifuge tube, and the supernatant was discarded by centrifugation. • 3) The cells were resuspended in assay buffer, counted using a Vi-cell counter, and diluted with assay buffer. • 4) Approximately 100 nL of 100 µM Forskolin was transferred into the cell reaction plate using an Echo and centrifuged. Then, 10 µL of assay buffer containing the cells was added and incubated. • 5) Approximately 10 µL of cAMP detection reagent solution was added to the corresponding wells of the cell reaction plate, and incubated at room temperature in the dark. • 6) The plate was read using a microplate reader. The final value was determined as the ratio of OD at 665 nm to that at 615 nm. • 7) The cAMP value was calculated for each well: Activity (%)=(signal value of sample well - mean signal value of low-signal control wells)/ (mean signal value of high-signal control wells - mean signal value of low-signal control wells). Fitting was performed using the "Nonlinear regression (curve fit)-log(agonist) vs. response -- Variable slope" model in GraphPad Prism 5.0, with the log-transformed compound concentration on the x-axis and cAMP activation rate on the y-axis. The EC50 value of the sample was calculated accordingly. Table 2: SSTR2 cAMP Test Results

T1 sequence (P30874 whole entry): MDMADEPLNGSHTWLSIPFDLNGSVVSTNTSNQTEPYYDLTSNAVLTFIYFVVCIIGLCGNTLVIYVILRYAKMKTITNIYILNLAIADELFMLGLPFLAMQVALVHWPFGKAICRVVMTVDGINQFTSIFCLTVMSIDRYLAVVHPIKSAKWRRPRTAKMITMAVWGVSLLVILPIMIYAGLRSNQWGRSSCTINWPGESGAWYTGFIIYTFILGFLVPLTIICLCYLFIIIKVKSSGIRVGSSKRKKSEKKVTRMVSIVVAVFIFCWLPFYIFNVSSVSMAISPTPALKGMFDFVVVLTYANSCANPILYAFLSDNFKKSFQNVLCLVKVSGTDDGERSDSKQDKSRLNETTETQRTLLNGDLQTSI

| SMILES | Bottom (Inhibition at Lowest Point) [1] | IC50 [1] [nM] | Top (Inhibition at Highest Point) [1] | Bottom (Inhibition at Lowest Point) [2] | Top (Inhibition at Highest Point) [2] | activity at 50 µM [3] [%] |
| --- | --- | --- | --- | --- | --- | --- |
| CC[C@H](C)[C@@H]([C@@H](CC(=O)N1CCC[C@H]1[C@H](OC)[C@@H](C)C(=O)N[C@H](C)[C@@H](O)c1ccccc1)OC)N(C)C(=O)[C@@H](NC(=O)[C@H](C(C)C)N(C)C(=O)OCc1ccc(NC(=O)[C@H](CCCNC(N)=O)NC(=O)[C@@H](NC(=O)CCCCCN2C(=O)CC(SC[C@H](NC(C)=O)C(=O)NCCOCCOCC(=O)N[C@@H](CCCNC(=N)N)C(=O)N[C@@H](CCCNC(=N)N)C(=O)N[C@@H](CC(C)C)C(=O)N[C@@H](Cc3ccccc3)C(=O)N[C@H]3CSSC[C@@H](C(=O)N[C@H](C(=O)N[C@@H](Cc4c[nH]c5ccccc45)C(=O)N[C@@H](CCCNC(=N)N)C(=O)N[C@@H](CC(=O)O)C(N)=O)[C@@H](C)O)NC(=O)[C@H]([C@@H](C)O)NC(=O)[C@H](CCCCN)NC(=O)[C@@H](Cc4c[nH]c5ccccc45)NC(=O)[C@H](Cc4ccc(O)cc4)NC3=O)C2=O)C(C)C)cc1)C(C)C (single isomer, unassigned) [Example 10, Ac-Cys(MC-Val-Cit-PABC-MMAE)-AEEA-Arg-Arg-Leu-Phe-[Cys-Tyr-D-Trp-Lys-Thr-Cys]-Thr-Trp-Arg-Asp-NH2] | -2.25 | 187 | 90.08 |  |  |  |
| CC[C@H](C)[C@@H]([C@@H](CC(=O)N1CCC[C@H]1[C@H](OC)[C@@H](C)C(=O)N[C@H](C)[C@@H](O)c1ccccc1)OC)N(C)C(=O)[C@@H](NC(=O)[C@H](C(C)C)N(C)C(=O)OCc1ccc(O[C@@H]2O[C@H](C(=O)O)[C@@H](O)[C@H](O)[C@H]2O)c(NC(=O)CCNC(=O)CCCCCN2C(=O)CC(SC[C@H](NC(C)=O)C(=O)NCCOCCOCC(=O)NCCOCCOCC(=O)NCCOCCOCC(=O)N[C@@H](CCCNC(=N)N)C(=O)N[C@@H](CCCNC(=N)N)C(=O)N[C@@H](CC(C)C)C(=O)N[C@@H](Cc3ccccc3)C(=O)N[C@H]3CSSC[C@@H](C(=O)N[C@H](C(=O)N[C@@H](Cc4c[nH]c5ccccc45)C(=O)N[C@@H](CCCNC(=N)N)C(=O)N[C@@H](CC(=O)O)C(N)=O)[C@@H](C)O)NC(=O)[C@H]([C@@H](C)O)NC(=O)[C@H](CCCCN)NC(=O)[C@@H](Cc4c[nH]c5ccccc45)NC(=O)[C@H](Cc4ccc(O)cc4)NC3=O)C2=O)c1)C(C)C (stereo partly drawn) [Example 4, Ac-Cys(MC-betaglucuronide-MMAE)-AEEA-AEEA-AEEA-Arg-Arg-Leu-Phe-[Cys-Tyr-D-Trp-Lys-Thr-Cys]-Thr-Trp-Arg-Asp-NH2] (I: Ac-C[AEEA][AEEA][AEEA]RRLFCY[dW]KTCTWRD-NH2 / II: [X1][NMeV]V[Dil][Dolaproine]-X2; linker I:1-II:N via X3; disulfide I:9-I:14) |  |  |  | 3.88 | 75.08 | 95.2 |
